{"source": "paper PMC9386913", "about": "(Arthritis Research & Therapy, 2022)", "key": {"[1]": {"experiment": "Peripheral blood leukocyte and subtype counts in MAD study", "conditions": "150 mg, pre-dose baseline through 14-day dosing (n = 5)"}, "[2]": {"system": "LPS-stimulated PBMCs", "conditions": "cited from earlier work"}, "[3]": {"system": "TNF, IL-6, and IL-1β transcripts", "experiment": "Cytokine mRNA decay in LPS-stimulated macrophages with actinomycin D", "format": "cell-based, human", "conditions": "1 μM CC-99677 with 10 μg/mL actinomycin D, normalized to GAPDH", "description": "After each time point, macrophages were washed with PBS and lysed with RLT Plus Lysis Buffer (Qiagen, Germantown, MD). RNA was isolated using the QiaCube, followed by cDNA preparation using Superscript IV enzyme mix (Invitrogen, Thermo Fisher, Waltham, MA)."}, "[4]": {"experiment": "Plasma pharmacokinetics in MAD study (LC-MS/MS)", "format": "in vivo, human (healthy volunteers)", "conditions": "for Cmax: human, plasma", "protocol": "PK parameters were calculated via non-compartmental methodology using Phoenix version 7 or higher (Princeton, NJ)."}, "[5]": {"system": "LPS-stimulated monocytes", "experiment": "Cytokine secretion in LPS-stimulated monocytes", "format": "cell-based, human", "conditions": "LPS 100 ng/mL 4 or 24 h", "protocol": "Culture supernatants were centrifuged, and the supernatants were collected and analyzed for selected cytokines and chemokines using Milliplex Magpix assays (catalog HCYTO – 60K; Millipore Sigma, Burlington, MA). Levels of proinflammatory cytokines TNF and MCP-1 for the monocytes and macrophages were quantified using specific ELISA kits (R&D, NJ, USA) according to the manufacturer’s recommendations. Data were processed using Milliplex Analyst, and significance was calculated using the one-way analysis of variance (ANOVA) with Dunnett’s post-test algorithms in GraphPad Prism version 5.01. PBMCs were isolated from buffy coat using the Ficoll gradient method. Monocytes were isolated using the […] Technologies Inc. kit (catalog number 19058; Vancouver, BC, Canada). […] Macrophages were then plated and allowed to acclimate for 24 h. […] Medium from the cultured macrophages was used for cytokine analysis using Magpix magnetic beads (Catalog HCYTO – 60K; Millipore Sigma, Burlington, MA). Cell pellets from the macrophage cultures were collected for western blot analysis using capillary electrophoresis to analyze the effect on TTP, with glyceraldehyde 3-phosphate dehydrogenase (GAPDH) used as the house-keeping protein in the capillary electrophoresis. Antibodies against total TTP (CST#7162 Rabbit Monoclonal antibody) and GAPDH (CST#5174 Rabbit Monoclonal antibody) were used to detect the respective proteins."}, "[6]": {"system": "LPS-stimulated PBMCs", "experiment": "Cytokine production in LPS-stimulated PBMCs", "format": "cell-based, human", "conditions": "0.3, 1, and 3 μM"}, "[7]": {"system": "THP-1 cells", "experiment": "In vitro tachyphylaxis model: daily treatment of THP-1 cells, LPS-stimulated TNF", "conditions": "up to 14 days, 0.1 or 1 μM CC-99677 or 1 μM p38 inhibitors"}, "[8]": {"system": "SEB/IL-2-stimulated PBMCs", "experiment": "Cytokine production in SEB/IL-2-stimulated PBMCs", "format": "cell-based, human", "conditions": "PBMCs from healthy donors and AS patients, SEB + IL-2 72 h"}}, "note": "Read-outs that look alike come from different tables or passages of the source.", "data": [{"smiles": "CCOCc1cnc(Cl)nc1Oc1ccc2c(ccc3sc4c(c32)NC[C@@H](C)NC4=O)n1", "note": "[CC-99677]", "values": [{"measurement": "Mean WBC, lymphocyte, monocyte, and neutrophil counts", "setting": "[1]", "value": "comparable to placebo"}, {"measurement": "Inflammatory cytokine production including TNF, IL-6, and GM-CSF", "setting": "[2]; LPS-stimulated healthy donor PBMCs", "value": "inhibits inflammatory cytokine production"}, {"measurement": "IL-1β inhibition in PBMCs after LPS stimulation", "setting": "[2]; PBMCs", "value": "no inhibition of IL-1β was observed"}, {"measurement": "mRNA decay of TNF, IL-6, and IL-1β transcripts", "setting": "[3]", "value": "significantly greater mRNA decay compared with actinomycin D alone"}, {"measurement": "Dose proportionality of concentration and exposure", "setting": "[4]; 10 to 150 mg once daily over 14 days", "value": "linear, dose-proportional increase in concentration and exposure"}, {"measurement": "Day-to-day plasma accumulation", "setting": "[4]; all 5 dose levels, minimal detectable plasma CC-99677 > 24 h after dosing", "value": "limited to no day-to-day plasma accumulation"}, {"measurement": "Cmax", "setting": "[4]; oral, 150-mg dose level, read-out: Geometric mean Cmax expressed as molar concentration", "value": "~800", "unit": "nM"}, {"measurement": "Cmax", "setting": "[4]; day 1, 10 mg oral, read-out: Geometric mean peak concentration (Cmax, CV%)", "value": 20.5, "unit": "ng/mL"}, {"measurement": "Cmax", "setting": "[4]; day 1, 30 mg oral, read-out: Geometric mean peak concentration (Cmax, CV%)", "value": 63.4, "unit": "ng/mL"}, {"measurement": "Cmax", "setting": "[4]; day 1, 60 mg oral, read-out: Geometric mean peak concentration (Cmax, CV%)", "value": 150, "unit": "ng/mL"}, {"measurement": "Cmax", "setting": "[4]; day 1, 120 mg oral, read-out: Geometric mean peak concentration (Cmax, CV%)", "value": 269, "unit": "ng/mL"}, {"measurement": "Cmax", "setting": "[4]; day 1, 150 mg oral, read-out: Geometric mean peak concentration (Cmax, CV%)", "value": 257, "unit": "ng/mL"}, {"measurement": "IL-1β secretion", "setting": "[5]", "value": "concentration-dependent inhibition"}, {"measurement": "IL-6 secretion", "setting": "[5]", "value": "concentration-dependent inhibition"}, {"measurement": "TNF secretion", "setting": "[5]", "value": "strong concentration-dependent inhibition"}, {"measurement": "GM-CSF production", "setting": "[6]; PBMCs from AS patients and healthy volunteers", "value": "inhibited GM-CSF in PBMCs from AS patients to similar levels as those seen in healthy volunteers"}, {"measurement": "TNF production", "setting": "[6]; PBMCs from AS patients, 1 h pretreatment, LPS 50 ng/mL", "value": "concentration-dependent inhibition of TNF production"}, {"measurement": "LPS-stimulated TNF production under continued daily treatment", "setting": "[7]", "value": "suppressed TNF production throughout the treatment period"}, {"measurement": "IL-6 expression", "setting": "[8]", "value": "inhibited"}, {"measurement": "IL-17A expression", "setting": "[8]", "value": "inhibited"}, {"measurement": "MCP-1 expression", "setting": "[8]", "value": "inhibited"}, {"measurement": "TNF expression", "setting": "[8]", "value": "inhibited"}]}]}
